Tests used:
[1] = tested on: E. coli, Stafelococus, Bascillus, and Salmonella; assay: Bactericidal efficacy of diluted disinfectants on actively growing pathogenic bacteria; format: cell-based; details: H2O2 absent; about 51 ppm complex silver
Experimental: Again, these prepared solutions were poured into dark bottles.
The above concludes the preparation of these disinfectants. However, to utilize these mixtures as bactericides, 5 ml of each bottled solution was added to 45 ml of double distilled-de-ionized water (10% by volume). […] The upper and lower concentration limits may be different if desired, depending on the nature of the desired application. For the samples where H2O2 is present, the active concentration of the disinfectant should be around 56,000 ppm.
The diluted solutions were then tested on several kinds of actively growing pathogenic bacteria to ascertain their effectiveness. Different strains of pathogenic bacteria were employed for the testing; namely, E. coli, Stafelococus, Bascillus, and Salmonella.

freshly-cut roses = assay: Preservation of cut flowers and plants; details: examined after 15 days; silver approximately 166 ppb in tap water for the invention's sample
Experimental: A silver concentration of approximately 166 ppb was used. Both inoculated and controlled samples were tested in which freshly-cut roses were placed in the prepared solution and tap water, respectively. Cut roses were chosen because they are very susceptible to slight changes in the surrounding area and are equally susceptible to chemicals. For comparative purposes, other preservative type chemicals were also tested; namely, silver thiosulfate and hypochlorite.
In the case of the two other chemicals used, it was observed that there was discoloration of the petals, loss of leaves and petals, and dehydration.

| Substance | order of potency among the amino acid complexes [1] | condition of cut roses (freshly-cut roses) |
| --- | --- | --- |
| Silver-Arginine Complex [Example 3] | most potency |  |
| Silver-glutamic Acid Complex [Example 1] |  | no black or brown burns on the petals and there were no wilted flowers, and the stems and leaves were in good condition |
